Broadly, the Ki is a dissociation constant, usually derived from enzyme kinetics or from competition with a known ligand.

Structures are written as SMILES.

The target of this experiment is T1, activated JNK3 (Homo sapiens, UniProt P53779).
T1 construct: One such construct encodes amino acid residues Ser40-Glu402 of JNK3α1 and is preceded by Met and Gly residues; Met-Gly (initiation Met plus Gly added to create the NcoI site) (N); made in house; host or cells: E. coli BL21 (DE3)
T1 sequence (P53779 40-402): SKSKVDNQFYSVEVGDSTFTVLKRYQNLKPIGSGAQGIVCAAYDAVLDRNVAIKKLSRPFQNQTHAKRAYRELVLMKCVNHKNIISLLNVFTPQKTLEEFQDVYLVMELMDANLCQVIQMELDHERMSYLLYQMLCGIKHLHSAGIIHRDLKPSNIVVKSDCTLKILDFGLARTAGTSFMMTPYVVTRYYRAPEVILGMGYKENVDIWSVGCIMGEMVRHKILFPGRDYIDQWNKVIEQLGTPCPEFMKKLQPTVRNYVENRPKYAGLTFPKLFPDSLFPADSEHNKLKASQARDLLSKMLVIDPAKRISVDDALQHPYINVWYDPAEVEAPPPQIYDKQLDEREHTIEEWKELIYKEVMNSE
As to the kind of experiment: JNK3 inhibition, spectrophotometric coupled-enzyme assay. To be noted: read-out: Activity in the JNK3 Inhibition Assay (Ki rating). The experiment is classed as biochemical. The source says:
A BLAST search of the EST database using the published JNK3α1 cDNA as a query identified an EST clone (#632588) that contained the entire coding sequence for human JNK3α1. Polymerase chain reactions (PCR) using pfu polymerase (Strategene) were used to introduce restriction sites into the cDNA for cloning into the pET-15B expression vector at the NcoI and BamHI sites. The protein was expressed in E. coli. […] This truncation corresponds to Ser 2 of JNK1 and JNK2 proteins, and is preceded by a methionine (initiation) and a glycine residue. The glycine residue was added in order to introduce an NcoI site for cloning into the expression vector. In addition, systematic C-terminal truncations were performed by PCR to identify a construct that give rise to diffraction-quality crystals.
5 mg of JNK3 was diluted to 0.5 mg/ml in 50 mM HEPES buffer, pH 7.5, containing 100 mM NaCl, 5 mM DTT, 20 mM MgCl2 and 1 mM ATP. GST-MKK7(DD) was added at a molar ratio of 1:2.5 GST-MKK7:JNK3. After incubation for 30 minutes at 25° C., the reaction mixture was concentrated 5-fold by ultrafiltration in a Centriprep-30 (Amicon, Beverly, Mass.), diluted to 10 ml and an additional 1 mM ATP added. This procedure was repeated three times to remove ADP and replenish ATP. The final addition of ATP was 5 mM and the mixture incubated overnight at 4° C.
The activated JNK3/GST-MKK7(DD) reaction mixture was exchanged into 50 mM HEPES buffer, pH 7.5, containing 5 mM DTT and 5% glycerol (w/v) by dialysis or ultrafiltration. The reaction mixture was adjusted to 1.1 M potassium phosphate, pH 7.5, and purified by hydrophobic interaction chromatography (at 25° C.) using a Rainin Hydropore column. […] Activated JNK3 (i.e. doubly phosphorylated JNK3) was stored at −70° C. at 0.25-1 mg/ml.
Compounds were assayed for the inhibition of JNK3 by a spectrophotometric coupled-enzyme assay. In this assay, a fixed concentration of activated JNK3 (10 nM) was incubated with various concentrations of a potential inhibitor dissolved in DMSO for 10 minutes at 30° C. in a buffer containing 0.1 M HEPES buffer, pH 7.5, containing 10 mM MgCl2, 2.5 mM phosphoenolpyruvate, 200 μM NADH, 150 μg/mL pyruvate kinase, 50 μg/mL lactate dehydrogenase, and 200 μM EGF receptor peptide. […] The reaction was initiated by the addition of 10 μM ATP and the assay plate is inserted into the spectrophotometer's assay plate compartment that was maintained at 30° C. The decrease of absorbance at 340 nm was monitored as a function of time. The rate data as a function of inhibitor concentration was fitted to competitive inhibition kinetic model to determine the Ki.
Turning to `Cc1onc(-c2ccccc2)c1-c1ccnc(Nc2cccc(CCC(=O)O)c2)c1` [IIA-132], the Ki is under 100 nM.
Next, `Cc1onc(-c2ccccc2)c1-c1ccnc(Nc2cccc(CC(=O)O)c2)c1` [IIA-133]: under 100 nM; `Cc1onc(-c2ccccc2)c1-c1ccnc(Nc2cccc(CO)c2)c1` [IIA-134]: under 100 nM; `Cc1onc(-c2ccccc2)c1-c1ccnc(Nc2cccc(CCC(=O)N[C@@H](C(=O)OC(C)(C)C)C(C)C)c2)c1` [IIA-135]: 100 to 1000 nM.
Regarding `Cc1onc(-c2ccccc2)c1-c1ccnc(Nc2ccc3ccccc3c2)n1` [IIAA-4], the Ki lay in the range of 100 to 1000 nM.
As for `COc1ccc2cc(Nc3nccc(-c4c(-c5ccccc5)noc4C)n3)ccc2c1` [IIAA-10], the figure is under 100 nM; as for `Cc1onc(-c2ccccc2)c1-c1ccnc(Nc2ccc3c(c2)CCC3=O)n1` [IIAA-11], under 100 nM; as for `Cc1ccnc(Nc2nccc(-c3c(-c4ccccc4)noc3C)n2)c1` [IIAA-12], under 100 nM.
`Cc1onc(-c2ccccc2)c1-c1ccnc(Nc2cccc3ccccc23)n1` [IIAA-13]: the Ki is under 100 nM.
As to `COc1ccc2cc(Nc3nccc(-c4c(-c5c(F)cccc5F)noc4C)n3)ccc2c1` [IIAA-14], the Ki was under 100 nM.
Regarding `Cc1ccc2ccccc2c1Nc1nccc(-c2c(-c3ccccc3)noc2C)n1` [IIAA-15], the Ki was in the range of 100 to 1000 nM.
Take `COC(=O)c1ccc2cc(Nc3nccc(-c4c(-c5ccccc5)noc4C)n3)ccc2c1` [IIAA-16]: the Ki was under 100 nM.
Next, `COc1ccc2ccccc2c1Nc1nccc(-c2c(-c3ccccc3)noc2C)n1` [IIAA-17]: over 1000 nM.
As for `COCc1ccc2ccccc2c1Nc1nccc(-c2c(-c3ccccc3)noc2C)n1` [IIAA-18], the figure is 100 to 1000 nM; as for `COc1ccc2cc(Nc3nccc(-c4c(-c5ccccc5C)noc4C)n3)ccc2c1` [IIAA-19], under 100 nM.
Turning to `Cc1ccc2cc(Nc3nccc(-c4c(-c5ccccc5C)noc4C)n3)ccc2n1` [IIAA-20], the inhibition constant Ki is 100 to 1000 nM.
Next, `Cc1ccc2cc(Nc3nccc(-c4c(-c5cccc([N+](=O)[O-])c5)noc4C)n3)ccc2n1` [IIAA-22]: 100 to 1000 nM; `Cc1ccc2cc(Nc3nccc(-c4c(-c5cccc(C#N)c5)noc4C)n3)ccc2n1` [IIAA-23]: 100 to 1000 nM; `Cc1onc(-c2ccccc2)c1-c1ccnc(NC2CCCCC2)n1` [IIAA-24]: under 100 nM.
As for `Cc1onc(-c2ccccc2)c1-c1ccnc(NC2Cc3ccccc3C2)n1` [IIAA-25], the inhibitory constant (Ki) is under 100 nM.
With `Cc1onc(-c2ccccc2)c1-c1ccnc(NC2CCN(Cc3ccccc3)CC2)n1` [IIAA-27], the Ki fell in the range of 100 to 1000 nM.
As for `Cc1onc(-c2ccccc2)c1-c1ccnc(NCC2CCCO2)n1` (centres unmarked) [IIAA-29], the Ki fell in the range of 100 to 1000 nM.
As for `CCOC(=O)N1CCC(Nc2nccc(-c3c(-c4ccccc4)noc3C)n2)CC1` [IIAA-31], the figure is under 100 nM; as for `Cc1onc(-c2ccccc2)c1-c1ccnc(NC2CCNCC2)n1` [IIAA-32], 100 to 1000 nM; as for `Cc1onc(-c2ccccc2)c1-c1ccnc(N[C@H]2CC[C@H](O)CC2)n1` [IIAA-36], under 100 nM.
On to `Cc1onc(-c2ccccc2)c1-c1ccnc(NC2CCC(=O)CC2)n1` [IIAA-38], for which the inhibition constant Ki was under 100 nM.
Next, `Cc1onc(-c2ccccc2)c1-c1ccnc(NC(=O)c2ccccc2)n1` [IIIA-1]: 100 to 1000 nM.
Consider `Cc1onc(-c2ccccc2)c1-c1ccnc(NC(=O)c2ccccc2Br)n1` [IIIA-2], for which the Ki was over 1000 nM.
With `Cc1onc(-c2ccccc2)c1-c1ccnc(NC(=O)c2ccccc2F)n1` [IIIA-3], the inhibition constant Ki fell in the range of 100 to 1000 nM.
With `Cc1onc(-c2ccccc2)c1-c1ccnc(NC(=O)c2ccccc2Cl)n1` [IIIA-4], the Ki is over 1000 nM.
`Cc1ccccc1C(=O)Nc1nccc(-c2c(-c3ccccc3)noc2C)n1` [IIIA-5]: the Ki is over 1000 nM.
Consider `Cc1cccc(C(=O)Nc2nccc(-c3c(-c4ccccc4)noc3C)n2)c1` [IIIA-6], for which the Ki fell in the range of 100 to 1000 nM.
Regarding `COc1ccc(C(=O)Nc2nccc(-c3c(-c4ccccc4)noc3C)n2)cc1` [IIIA-7], the inhibitory constant (Ki) is 100 to 1000 nM.
As for `COc1ccc(C(=O)Nc2nccc(-c3c(-c4ccccc4)noc3C)n2)cc1OC` [IIIA-8], the figure is 100 to 1000 nM; as for `COc1ccc(C(=O)Nc2nccc(-c3c(-c4ccccc4)noc3C)n2)c(OC)c1` [IIIA-9], over 1000 nM; as for `COc1cccc(OC)c1C(=O)Nc1nccc(-c2c(-c3ccccc3)noc2C)n1` [IIIA-10], over 1000 nM.
Next, `Cc1onc(-c2ccccc2)c1-c1ccnc(NC(=O)c2ccc(C#N)cc2)n1` [IIIA-11]: 100 to 1000 nM.
For `Cc1onc(-c2ccccc2)c1-c1ccnc(NC(=O)c2ccc(F)cc2)n1` [IIIA-14], the Ki was 100 to 1000 nM.
In the case of `Cc1onc(-c2ccccc2)c1-c1ccnc(NC(=O)c2cccs2)n1` [IIIA-15], the inhibitory constant (Ki) was under 100 nM.
Next, `COc1cc(C(=O)Nc2nccc(-c3c(-c4ccccc4C)noc3C)n2)cc(OC)c1OC` [IIIA-18]: 100 to 1000 nM; `COc1cccc(C(=O)Nc2nccc(-c3c(-c4ccccc4C)noc3C)n2)c1` [IIIA-19]: 100 to 1000 nM.
Next, `COc1ccc(C(=O)Nc2nccc(-c3c(-c4ccccc4C)noc3C)n2)cc1` [IIIA-20]: 100 to 1000 nM; `COc1cc(OC)cc(C(=O)Nc2nccc(-c3c(-c4ccccc4C)noc3C)n2)c1` [IIIA-21]: 100 to 1000 nM.
Next, `COc1cc(C(=O)Nc2nccc(-c3c(-c4ccccc4C(F)(F)F)noc3C)n2)cc(OC)c1OC` [IIIA-22]: over 1000 nM; `COc1cccc(C(=O)Nc2nccc(-c3c(-c4ccccc4C(F)(F)F)noc3C)n2)c1` [IIIA-23]: over 1000 nM; `COc1ccc(C(=O)Nc2nccc(-c3c(-c4ccccc4C(F)(F)F)noc3C)n2)cc1` [IIIA-24]: over 1000 nM.
For the compound `COc1cc(OC)cc(C(=O)Nc2nccc(-c3c(-c4ccccc4C(F)(F)F)noc3C)n2)c1` [IIIA-25], the Ki was over 1000 nM.
Next, `COc1cc(C(=O)Nc2nccc(-c3c(-c4cccc(OCc5ccccc5)c4)noc3C)n2)cc(OC)c1OC` [IIIA-30]: 100 to 1000 nM.
Next, `COc1cccc(C(=O)Nc2nccc(-c3c(-c4cccc(OCc5ccccc5)c4)noc3C)n2)c1` [IIIA-31]: 100 to 1000 nM; `COc1ccc(C(=O)Nc2nccc(-c3c(-c4cccc(OCc5ccccc5)c4)noc3C)n2)cc1` [IIIA-32]: 100 to 1000 nM; `COc1cc(OC)cc(C(=O)Nc2nccc(-c3c(-c4cccc(OCc5ccccc5)c4)noc3C)n2)c1` [IIIA-33]: 100 to 1000 nM.
Turning to `COc1cc(C(=O)Nc2nccc(-c3c(-c4cccc([N+](=O)[O-])c4)noc3C)n2)cc(OC)c1OC` [IIIA-34], the Ki is over 1000 nM.
Take `COc1cccc(C(=O)Nc2nccc(-c3c(-c4cccc([N+](=O)[O-])c4)noc3C)n2)c1` [IIIA-35]: the Ki was over 1000 nM.
Next, `COc1ccc(C(=O)Nc2nccc(-c3c(-c4cccc([N+](=O)[O-])c4)noc3C)n2)cc1` [IIIA-36]: over 1000 nM; `COc1cc(OC)cc(C(=O)Nc2nccc(-c3c(-c4cccc([N+](=O)[O-])c4)noc3C)n2)c1` [IIIA-37]: over 1000 nM.
As for `COc1cc(C(=O)Nc2nccc(-c3c(-c4cccc(C#N)c4)noc3C)n2)cc(OC)c1OC` [IIIA-38], the figure is over 1000 nM; as for `COc1cccc(C(=O)Nc2nccc(-c3c(-c4cccc(C#N)c4)noc3C)n2)c1` [IIIA-39], over 1000 nM; as for `COc1ccc(C(=O)Nc2nccc(-c3c(-c4cccc(C#N)c4)noc3C)n2)cc1` [IIIA-40], over 1000 nM.
On to `COc1cc(OC)cc(C(=O)Nc2nccc(-c3c(-c4cccc(C#N)c4)noc3C)n2)c1` [IIIA-41], for which the Ki was over 1000 nM.
`COc1cc(OC)cc(C(=O)Nc2nccc(-c3c(-c4ccccc4)noc3C)n2)c1` [IIIA-42]: the Ki fell in the range of 100 to 1000 nM.
As for `Cc1onc(-c2ccccc2)c1-c1ccnc(NC(=O)c2cccc(C#N)c2)n1` [IIIA-43], the figure is under 100 nM.
Next, `COC(=O)c1ccc(C(=O)Nc2nccc(-c3c(-c4ccccc4)noc3C)n2)cc1` [IIIA-44]: 100 to 1000 nM.
